The nature of series [1]: Critical micelle concentration at 25° C. by pyrene fluorescence intensity ratio I1/I3. The series is classed as physicochemical. The settings on record: ion exchange water. As for the experimental part:
A critical micelle concentration of component (a) or (a′) at 25° C. was measured by the method below.
A 1×10^−3 mol/L ethanol solution of pyrene (FUJIFILM Wako Pure Chemical Corporation) was prepared in a brown screw cap tube, and 5 μl of the solution was placed in a screw cap tube (No. 3) and dried with dry air. 5 mL of an aqueous solution of component (a) or (a′) to be measured (prepared with ion exchange water) was added thereto and processed with an ultrasonic cleaner for 15 minutes, and using this, fluorescence spectrum measurements were performed with a fluorescence spectrophotometer (Fluorescence Spectrophotometer F-7000 (manufactured by Hitachi High-Tech Corporation)). Fluorescence intensities I1 and I3 at wavelengths λ1 of 373 nm and λ3 of 384 nm were measured under the measurement conditions below to calculate fluorescence intensity ratio I1/I3.
A graph was prepared on which the horizontal axis plots a concentration of component (a) or (a′) and the vertical axis plots a fluorescence intensity ratio I1/I3, at each concentration, and a surfactant concentration at the midpoint between the maximum value and the minimum value of I1/I3 was taken as the critical micelle concentration.
Excitation wavelength: 339 nm, slit on the excitation side: […], slit on the fluorescence side: […], scanning rate: 60 nm/min, liquid temperature: 25° C., measurement range: 350 to 400 nm

In series [2] the test system is Influenza A virus (H1N1, A/PR/8/34) ATCC VR-1469. The experiment in a line: Anti-influenza virus verification test (focus assay on MDCK cells). To be noted: for Evaluation result (Δ LOG (FFU/mL) class) / Minimum inactivation concentration: Influenza virus; for Minimum inactivation concentration: minimum concentration at which Δ LOG (FFU/mL) is 3 or more; for inactivation effect in the presence of hardness components (in words): Table 5: influenza virus, 4 °DH, contact 10 min. It counts as cell-based.

For series [3], the system named is Betacoronavirus 1 (OC43) ATCC VR-1558. Put plainly: Anti-human coronavirus verification test (TCID50 on HCT-8 cells). It counts as cell-based.
Series [4] has as its system Pseudomonas syringae phage ϕ6 (NBRC 105899). Put plainly: Anti-bacteriophage ϕ6 verification test (plaque assay). The series is classed as cell-based. To be noted: Bacteriophage Φ6; hardness of water 0 °DH; contact time 10 min; minimum concentration at which Δ LOG (PFU/mL) is 3 or more.
Series [5] can be described thus: Krafft point measurement with rhodamine 6G. It counts as physicochemical. The settings on record: 0.2 mass % in ion exchange water. As for the experimental part:
A krafft point of component (a) or (a′) was measured by the method below.
A solution obtained by diluting component (a) or (a′) with ion exchange water to attain a total amount of 5 mL and a concentration of 0.2 mass % was prepared and placed in a glass test tube, and the fluorescent dye rhodamine 6G (FUJIFILM Wako Pure Chemical Corporation) was then added to attain a final concentration of 0.02 mM. After the test tube was placed in an ice bath to condition a temperature at 5° C., the temperature was raised at a temperature rise rate of 0.5° C./min, and a temperature at which the solution emitted fluorescence was taken as the krafft point. Component (a) or (a′) which had emitted fluorescence at 5° C. was considered to have a krafft point of less than 5° C.

Setting [6] is: 100 ppm, hardness of water 0 °DH, contact time 0.5 min.
[7] abbreviates: 100 ppm, hardness of water 0 °DH, contact time 1 min.
Setting [8] is: 100 ppm, hardness of water 0 °DH, contact time 5 min.
[9] abbreviates: 100 ppm, hardness of water 0 °DH, contact time 10 min.
Where [10] appears, read: hardness of water 0 °DH, contact time 10 min.
The mark [11] stands for this setting: Human coronavirus, hardness of water 0 °DH, contact time 10 min, […].
Setting [12] is: 500 ppm, hardness of water 4 °DH, contact time 10 min.

Read-outs that look alike come from different tables or passages of the source.

With `CCCCC(CC)COC(=O)CC(C(=O)OCC(CC)CCCC)S(=O)(=O)[O-].[Na+]` (stereo not shown) [(a′-1), sodium di(2-ethylhexyl)sulfosuccinate], in series [1], the “critical micelle concentration (25° C.)” value came out at 0.0028 mol/L. Also, the “Evaluation result (Δ LOG (FFU/mL) class)” value was 1 (a Δ LOG (FFU/mL) of the infectious titers of less than 1) in series [2] (setting [6]); 1 (a Δ LOG (FFU/mL) of the infectious titers of less than 1) in series [2] (setting [7]); 1 (a Δ LOG (FFU/mL) of the infectious titers of less than 1) in series [2] (setting [8]); 2 (a Δ LOG (FFU/mL) of 1 or more and less than 2) in series [2] (setting [9]). Further, the Minimum inactivation concentration in series [2] (setting [10]) is given as 250 ppm; in series [3] it was more than 250 ppm; in series [4], 250 ppm.

`CCCCCCCCCCCCCCCCOS(=O)(=O)[O-].[Na+]` [(a′-3), sodium alkyl sulfate with 16 carbons]: the “critical micelle concentration (25° C.)” value in series [1] amounted to 0.00045 mol/L. For the same molecule, the figures for the Minimum inactivation concentration in series [2] (setting [10]), in series [3] (setting [11]) and in series [4] were more than 500 ppm, >>2000 ppm and more than 500 ppm, respectively. Further, the krafft point in series [5] is 40 °C.

Turning to `CCCCCCCCCCCCOS(=O)(=O)[O-].[Na+]` [(a′-4), sodium alkyl sulfate with 12 carbons], the “critical micelle concentration (25° C.)” value in series [1] was found to be 0.0082 mol/L. Besides, the results for the Minimum inactivation concentration in series [2] (setting [10]), in series [3] (setting [11]) and in series [4] were more than 500 ppm, more than 2000 ppm and more than 500 ppm, respectively.

Take `CCCCCCCC/C=C\CCCCCCCC(=O)[O-].[K+]` [(a′-5), potassium oleate]: the “critical micelle concentration (25° C.)” value in series [1] worked out at 0.0015 mol/L. Also, the “Evaluation result (Δ LOG (FFU/mL) class)” value in series [2] (setting [12]) was 1 (a Δ LOG (FFU/mL) of the infectious titers of less than 1). The “inactivation effect in the presence of hardness components (in words)” value in series [2] (500 ppm) is listed as “insufficient inactivation effect”.

In the case of “sodium di(2-propylheptyl)sulfosuccinate [(a-1)]”, the “critical micelle concentration (25° C.)” value in series [1] came to 0.00035 mol/L. Besides, the “Evaluation result (Δ LOG (FFU/mL) class)” value in series [2] (setting [6]), in series [2] (setting [7]), in series [2] (setting [8]), in series [2] (setting [9]) and in series [2] (setting [12]) was 4 (a Δ LOG (FFU/mL) of 3 or more) in each case. Also, the Minimum inactivation concentration amounted to 50 ppm in series [2] (setting [10]), 100 ppm in series [3] (setting [11]) and 10 ppm in series [4]. In series [2] (Table 4: influenza virus, 100 ppm, 0 °DH, contact 0.5 to 10 min, compared to comparative examples 5 and 6), the “inactivation effects on the enveloped virus by short-time contact (in words)” value is listed as “high inactivation effects”. In addition, the “inactivation effect in the presence of hardness components (in words)” value in series [2] (500 ppm) was “high inactivation effects”.

For the origin of these results see patent publication US20250115828A1, “INACTIVATING AGENT FOR ENVELOPED VIRUSES” (priority 2022, published 2025).
